Measured values from the NIST ThermoML archive (doi:10.1016/j.jct.2016.06.001).

Conditions: Liquid, Frequency=8 MHz, Pulse-echo method

OCCO [1,2-ethanediol]
Conditions	speed of sound [m/s]
273.15 K, 99 kPa	1713.8
273.15 K, 5204 kPa	1727.5
273.15 K, 10344 kPa	1740.9
273.15 K, 15152 kPa	1753.2
273.15 K, 20194 kPa	1765.9
273.15 K, 25132 kPa	1778.1
273.15 K, 30171 kPa	1789.9
293.15 K, 99 kPa	1665.8
293.15 K, 5051 kPa	1679.8
293.15 K, 10070 kPa	1693.5
293.15 K, 15176 kPa	1707.2
293.15 K, 20158 kPa	1720.2
293.15 K, 25108 kPa	1732.9
293.15 K, 30024 kPa	1745.3
313.15 K, 100 kPa	1618.5
313.15 K, 5031 kPa	1633.1
313.15 K, 10028 kPa	1647.3
313.15 K, 15117 kPa	1661.7
313.15 K, 20088 kPa	1675.3
313.15 K, 25102 kPa	1688.7
313.15 K, 29983 kPa	1701.6
333.15 K, 99 kPa	1570.7
333.15 K, 5054 kPa	1586.1
333.15 K, 10048 kPa	1601.1
333.15 K, 15067 kPa	1615.8
333.15 K, 20106 kPa	1630.3
333.15 K, 25103 kPa	1644.3
333.15 K, 29958 kPa	1657.7
353.15 K, 100 kPa	1521.8
353.15 K, 5079 kPa	1538.1
353.15 K, 10048 kPa	1553.8
353.15 K, 15054 kPa	1569.3
353.15 K, 20071 kPa	1584.4
353.15 K, 25078 kPa	1599.1
353.15 K, 29995 kPa	1613.3

CC(O)CO (stereo not given) [1,2-propanediol]
Conditions	speed of sound [m/s]
303.15 K, 99 kPa	1494.4
303.15 K, 5091 kPa	1513.5
303.15 K, 10060 kPa	1532
303.15 K, 15098 kPa	1550.2
303.15 K, 20084 kPa	1567.7
303.15 K, 25068 kPa	1584.7
303.15 K, 30167 kPa	1601.6
313.15 K, 99 kPa	1465.9
313.15 K, 5014 kPa	1485.5
313.15 K, 10053 kPa	1504.8
313.15 K, 15011 kPa	1523.2
313.15 K, 20095 kPa	1541.5
313.15 K, 25202 kPa	1559.4
313.15 K, 30222 kPa	1576.5
333.15 K, 100 kPa	1408.9
333.15 K, 5039 kPa	1429.7
333.15 K, 10054 kPa	1450.1
333.15 K, 15107 kPa	1469.8
333.15 K, 20131 kPa	1489
333.15 K, 25131 kPa	1507.4
333.15 K, 30024 kPa	1524.9
353.15 K, 99 kPa	1350.9
353.15 K, 5042 kPa	1373
353.15 K, 10055 kPa	1394.6
353.15 K, 15135 kPa	1415.6
353.15 K, 20093 kPa	1435.5
353.15 K, 25086 kPa	1454.8
353.15 K, 30207 kPa	1474.1

CC(C)CO [2-methyl-1-propanol]
Conditions	speed of sound [m/s]
253.15 K, 102 kPa	1347.3
253.15 K, 5144 kPa	1373.7
253.15 K, 10257 kPa	1399.1
253.15 K, 15122 kPa	1422.2
253.15 K, 20400 kPa	1446.6
253.15 K, 25315 kPa	1468
253.15 K, 30039 kPa	1488.7
273.15 K, 105 kPa	1274.2
273.15 K, 5154 kPa	1302.8
273.15 K, 10139 kPa	1329.4
273.15 K, 15072 kPa	1354.7
273.15 K, 20215 kPa	1380
273.15 K, 25138 kPa	1403.2
273.15 K, 30242 kPa	1426.4
293.15 K, 102 kPa	1204.9
293.15 K, 5004 kPa	1234.9
293.15 K, 10097 kPa	1264.2
293.15 K, 15140 kPa	1291.7
293.15 K, 20220 kPa	1318.2
293.15 K, 25063 kPa	1342.5
293.15 K, 30100 kPa	1366.7
313.15 K, 104 kPa	1138.1
313.15 K, 5135 kPa	1171.1
313.15 K, 10050 kPa	1201.4
313.15 K, 15190 kPa	1231.5
313.15 K, 20126 kPa	1259
313.15 K, 25019 kPa	1285.1
313.15 K, 30259 kPa	1311.7
333.15 K, 100 kPa	1071.8
333.15 K, 5187 kPa	1108
333.15 K, 10181 kPa	1141.3
333.15 K, 15331 kPa	1173.6
333.15 K, 20135 kPa	1202
333.15 K, 25174 kPa	1230.4
333.15 K, 30144 kPa	1257
353.15 K, 104 kPa	1004.1
353.15 K, 5055 kPa	1042.8
353.15 K, 10093 kPa	1079.4
353.15 K, 15238 kPa	1114.2
353.15 K, 20157 kPa	1145.4
353.15 K, 25111 kPa	1175.1
353.15 K, 30108 kPa	1203.6
